Measurements taken from US6447997B1, “Gene coding for GADD153 as a clinical diagnostic and prognostic in cancer therapy” (Research Development Foundation, priority 1997, dated 2002).

How the values were obtained:
Assay type in all cases: cell-based, human
UMSCC10b-Pt/S15 = assay: Sensitivity to cDDP in vitro, clonogenic assay; settings: subline UMSCC10b-Pt/S15
Procedure: (§1) UMSCC10b cells were selected for cDDP resistance by chronic exposure to cDDP which was supplied by (Bristol-Meyers-Squibb, Princeton, N.Y.). The first three selections were performed at a concentration of 0.5 μM which allowed approximately 10^7 cells to grow to confluence in a 150 cm^2 flask within one week. For every following set of 3 selections, the cDDP concentration was increased by approximately 20% (15,16). The sensitivity of the UMSCC10b cell line and its cDDP-resistant variants to cDDP was determined by clonogenic assay using a 1 h cDDP exposure. A single-cell suspension was plated into 60 mm tissue culture dishes (Corning) at 300 cells per dish in fresh medium. After incubation for 24 h at 37° C., cells had attached to the plates and cDDP was added to the cells and incubated for 1 h following which the cells were washed twice with phosphate-buffered saline and 5 ml of fresh medium was added. Cultures were incubated for an additional 13-15 days following which there were fixed with methanol, stained with Giemsa, and clusters of >50 cells were scored as colonies. cDDP-selected cells were cultured in drug-free media for 2 weeks before cDDP sensitivity was determined by clonogenic assay.

UMSCC10b-Pt/S6 = assay: Sensitivity to cDDP in vitro, clonogenic assay; settings: subline UMSCC10b-Pt/S6
Procedure: as §1

GADD153 mRNA = GADD153 mRNA level in UMSCC10b cells and cDDP-resistant sublines after cDDP exposure, RT-PCR
Procedure: In order to permit use of needle aspiration biopsies of tumors, the highly sensitive technique of RT-PCR rather than the less sensitive technique of Northern blot analysis was utilized throughout for quantitation of mRNA. The magnitude of the change in GADD153 mRNA level as a function of cisplatin (cDDP) concentration was determined by treating UMSCC10b cells with 0.1, 1, 10, or 100 μM cDDP for 1 h and quantifying GADD153 mRNA in untreated and treated cells harvested at 24 h by RT-PCR. The procedure is detailed in the attached examples. The results in FIG. 1 indicate that a concentration-dependent magnitude of increase in GADD153 mRNA levels reached 6-fold at the highest cDDP concentration tested. FIG. 2 depicts the time course of increase in GADD153 following a 1 h exposure to 100 μM cDDP. An increase in GADD153 mRNA level was evident at 12 h after cDDP exposure, and the peak occurred at 24 h followed by a decline to baseline levels by 96 h. β-ACTIN was used as an internal standard to normalize the data.
Without being held to a particular mechanism of action, the present inventors believe that the magnitude of increase in GADD153 mRNA level reflects the extent of tumor cell damage in a tumor treated with a chemotherapeutic agent. Supportive evidence was obtained using sublines of UMSCC10b selected for cDDP resistance. The parental cells, the 3-fold resistant subline UMSCC10b-Pt/S6 (15,16), and the 6-fold resistant subline UMSCC10b-Pt/S15 (15,16) were exposed to 2, 7, 12 μM cDDP for 1 h. These levels of exposure correspond to the IC10, IC50, and IC70 for the parental cell line, respectively.
To assure that the resistant variants had not lost their capacity to activate the GADD153 gene, and to validate the change in GADD153 level as a molecular marker of tumor injury in drug resistant as well as sensitive cells, the effect of cDDP applied at equitoxic concentrations was compared between the parental cells and the two resistant sublines.
To determine the time course of the change in GADD153 mRNA level, UMSCC10b cells were incubated with 100 μM cDDP for 1 h and total RNA was extracted at 0, 1, 2, 6, 12, 24, 48, 72 and 96 h after treatment. To analyze the effect of cDDP concentration on the expression of GADD153 , UMSCC10b cells were incubated for 1 h with various cDDP concentrations (0, 0.1, 1, 10, 100 and 1000 μM) and RNA was extracted 24 h after cDDP exposure.
UMSCC10b cells were harvested in 10 ml of denaturing solution (4 M guanidinium thiocyanate, 25 mM sodium citrate, pH 7, 0.5% sarcosyl, and 0.1 M 2-mercaptoethanol. After adding 1 ml of 2 M sodium acetate (pH 4), 10 ml of water-saturated phenol (pH 4) and 2 ml of chloroform:isoamyl alcohol (49:1) to the denatured cells, they were mixed thoroughly, placed on ice for 15 min, and centrifuged at 2800 rpm for 20 min at 4° C. The aqueous phase was collected and mixed with 10 ml of isopropyl alcohol, placed for 1 h at −20° C. and centrifuged. The pellet was dissolved in 1.8 ml of denaturing solution and 2 ml of isopropyl alcohol, placed for 1 h at −20° C. and centrifuged. The pellet was washed with 1 ml of 80% ethanol and then centrifuged at 5000 rpm for 10 min at room temperature. The RNA pellet was dried for 20 min in a tissue culture hood and resuspended in 100 μl of DEPC-treated water. Of this solution, 50 μl was used immediately for cDNA synthesis.
GADD153 message levels were quantified using a modification of the technique reported by Horikoshi et al (20). Total RNA acquired from the biopsies or xenografts was reverse-transcribed using random hexamers to produce cDNA (20,21,22). Serial dilutions of the CDNA were made and 5 μl of each dilution was placed in a sterile 0.5 ml Eppendorf tube. […]

[1] = UMSCC10b cells, 1 h exposure to 100 μM cDDP

## [NH2][Pt]([NH2])([Cl])[Cl] [cDDP, cisplatin]
UMSCC10b-Pt/S15
  cDDP resistance relative to parental cells: 6 fold
UMSCC10b-Pt/S6
  cDDP resistance relative to parental cells: 3 fold
GADD153 mRNA; 3-fold resistant variant UMSCC10b-Pt/S6, 2, 7, 12 μM cDDP for 1 h (equimolar)
  magnitude of the increase in GADD153 mRNA level: lower than in the parental cells
GADD153 mRNA; 6-fold resistant variant UMSCC10b-Pt/S15, 2, 7, 12 μM cDDP for 1 h (equimolar)
  expression of GADD153: did not increase above its baseline level
GADD153 mRNA; [1]
  time at which increase in GADD153 mRNA level was evident: 12 h
  time of decline of GADD153 mRNA to baseline levels: ≤ 96 h
  time of peak GADD153 mRNA level: 24 h
GADD153 mRNA; UMSCC10b cells, 1 h exposure, highest cDDP concentration tested (100 μM), harvested at 24 h
  magnitude of increase in GADD153 mRNA levels: 6 fold
GADD153 mRNA; parental cells and two resistant sublines, IC10, IC50, IC70
  change in expression of GADD153 at equitoxic concentrations: no difference between the cell lines
